Experimental findings from patent publication US10538555B2, “Macrocyclic inhibitors of the PD-1/PD-L1 and CD80(B7-1)/PD-L1 protein/protein interactions” (BRISTOL-MYERS SQUIBB COMPANY, priority 2014, dated 2020) are described below.

This experiment addresses T1, Human PD-L1/PD-1 (Homo sapiens, UniProt Q9NZQ7).
T1 construct: TVMV protease cleavage site (C); made in house; host or cells: HEK293T cells
As to the kind of experiment: HTRF Human PD-L1/PD-1 binding assay (PD-1-Ig/PD-L1-His). The following applies: PD-L1-His 10 nM, PD-1-Ig 20 nM; class symbol; read-out: HTRF Human PD-L1/PD-1 Binding Assay IC50 Range. The method in brief:
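Truncated Fc-fused human PD-1 (aa 25-167) at 20 nM and His-tagged PD-L1 (aa 18-239) at 10 nM final are used, with peptides preincubated 15 min with PD-L1. Detection uses europium-cryptate anti-Ig and APC anti-His antibodies; 665/620 nm ratio.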
A general note: Time-resolved FRET reads energy transfer from a long-lived donor to a nearby acceptor.

The structures appear in SMILES notation. Where a SMILES comes first, the peptide text is derived from it. Bridges are numbered along the chain shown (N, C = ends). [ ]: non-standard residue; d: D form. ξ: configuration not given here. Trp(1-CH2COOH) = N[C@@H](Cc1cn(CC(=O)O)c2ccccc12)C(=O)O; Phe(3,4,5-F3) = N[C@@H](Cc1cc(F)c(F)c(F)c1)C(=O)O; Phe(4-F) = N[C@@H](Cc1ccc(F)cc1)C(=O)O; Hyp = O=C(O)[C@@H]1C[C@@H](O)CN1; NMeF = CN[C@@H](Cc1ccccc1)C(=O)O; NMehSer = CN[C@@H](CCO)C(=O)O; NMeNle = CCCC[C@H](NC)C(=O)O; hSer = N[C@@H](CCO)C(=O)O; NMeA = CN[C@@H](C)C(=O)O; Orn = NCCC[C@H](N)C(=O)O; Dab = NCC[C@H](N)C(=O)O; Dap = NC[C@H](N)C(=O)O; ξP = O=C(O)C1CCCN1; ξC = NC(CS)C(=O)O; Sar = CNCC(=O)O

T1 sequence (Q9NZQ7 with tags, fused parts or gaps): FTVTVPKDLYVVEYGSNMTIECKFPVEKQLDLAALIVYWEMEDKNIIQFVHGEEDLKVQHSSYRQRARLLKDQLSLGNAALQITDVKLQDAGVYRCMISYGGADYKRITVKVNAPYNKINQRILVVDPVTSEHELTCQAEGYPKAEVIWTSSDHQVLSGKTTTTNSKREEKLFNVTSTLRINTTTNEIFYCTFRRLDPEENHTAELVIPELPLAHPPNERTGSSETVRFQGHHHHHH

As for `CCCC[C@H]1C(=O)N2CCC[C@@H]2C(=O)N[C@@H](CC(=O)O)C(=O)N[C@@H](C(C)C)C(=O)N(C)[C@@H](Cc2ccccc2)C(=O)N[C@@H](Cc2ccc(O)cc2)C(=O)N2CCC[C@@H]2C(=O)N[C@@H](Cc2c[nH]c3ccccc23)C(=O)N[C@@H](Cc2ccc(O)cc2)C(=O)N[C@@H](CCCCN)C(=O)N[C@H](C(=O)NCC(N)=O)CSCC(=O)N[C@@H](Cc2cc(F)c(F)c(F)c2)C(=O)N(C)[C@@H](Cc2ccccc2)C(=O)N1C` [Example 10096] ({CH2CO}-[Phe(3,4,5-F3)][NMeF][NMeNle][dP]DV[NMeF]Y[dP]WYKCG-NH2; thioether N-13), the IC50 lay in the range of 1 to 9.9 nM.

For `CCCC[C@H]1C(=O)N(C)[C@@H](CCCC)C(=O)N[C@@H](CCC(=O)O)C(=O)N[C@H](C(=O)NCC(N)=O)CSCC(=O)N[C@@H](Cc2ccc(OC)cc2)C(=O)N(C)[C@@H](C)C(=O)N[C@@H](CC(N)=O)C(=O)N2CCC[C@H]2C(=O)N[C@@H](CN)C(=O)N[C@@H](CCCCN)C(=O)N2C[C@H](O)C[C@H]2C(=O)N[C@@H](Cc2c[nH]c3ccccc23)C(=O)N[C@@H](CCN)C(=O)N[C@@H](Cc2cn(CC(=O)O)c3ccccc23)C(=O)N1C` [Example 7146] ({CH2CO}-Y(Me)[NMeA]NP[Dap]K[Hyp]W[Dab][Trp(1-CH2COOH)][NMeNle][NMeNle]ECG-NH2; thioether N-14), the IC50 is 10 to 99.9 nM. As to `CCCC[C@H]1C(=O)N(C)[C@@H](CCCC)C(=O)N[C@@H](CCC(=O)O)C(=O)N[C@H](C(=O)NCC(N)=O)CSCC(=O)N[C@@H](Cc2ccc(O)cc2)C(=O)N(C)[C@@H](C)C(=O)N[C@@H](CC(N)=O)C(=O)N2CCCC2C(=O)N[C@@H](CN)C(=O)N[C@@H](CC(C)C)C(=O)N2C[C@H](O)C[C@H]2C(=O)N[C@@H](Cc2c[nH]c3ccccc23)C(=O)N[C@@H](CCN)C(=O)N[C@@H](Cc2cn(CC(=O)O)c3ccccc23)C(=O)N1C` (some centres unmarked) [Example 6344] ({CH2CO}-Y[NMeA]N[ξP][Dap]L[Hyp]W[Dab][Trp(1-CH2COOH)][NMeNle][NMeNle]ECG-NH2; thioether N-14), the IC50 was in the range of 1 to 9.9 nM. Then `CCCC[C@H]1C(=O)N(C)[C@@H](CCCC)C(=O)N[C@@H](CCC(=O)O)C(=O)NC(C(=O)NCC(N)=O)CSCC(=O)N[C@@H](Cc2ccc(O)cc2)C(=O)N(C)[C@@H](C)C(=O)N[C@@H](CC(N)=O)C(=O)N2CCC[C@H]2C(=O)N[C@@H](CC(N)=O)C(=O)N[C@@H](CC(C)C)C(=O)N2CCC[C@H]2C(=O)N[C@@H](Cc2c[nH]c3ccccc23)C(=O)N[C@@H](CN)C(=O)N[C@@H](Cc2c[nH]c3ccccc23)C(=O)N1C` (some centres unmarked) [Example 9176] ({CH2CO}-Y[NMeA]NPNLPW[Dap]W[NMeNle][NMeNle]E[ξC]G-NH2; thioether N-14), with 100 to 990 nM; and `CCCC[C@H]1C(=O)N(C)[C@@H](CCCC)C(=O)N[C@@H](C)C(=O)N[C@H](C(=O)NCC(N)=O)CSCC(=O)N[C@@H](Cc2ccc(O)cc2)C(=O)N2CCCC[C@H]2C(=O)N[C@@H](CC(N)=O)C(=O)N2CCC[C@H]2C(=O)N[C@@H](Cc2cnc[nH]2)C(=O)N[C@@H](CCC(N)=O)C(=O)N2CCOC[C@H]2C(=O)N[C@@H](Cc2c[nH]c3ccccc23)C(=O)N[C@@H](CO)C(=O)N[C@@H](Cc2c[nH]c3ccccc23)C(=O)N1C` [Example 1277], with 10 to 99.9 nM; and `CCCC[C@H]1C(=O)N2CCC[C@@H]2C(=O)N[C@@H](CC(=O)O)C(=O)N[C@@H](C(C)C)C(=O)N(C)[C@@H](CCOC)C(=O)N[C@@H](Cc2ccc(O)cc2)C(=O)N2CCC[C@@H]2C(=O)N[C@@H](Cc2c[nH]c3ccccc23)C(=O)N[C@@H](Cc2ccc(O)cc2)C(=O)N[C@@H](CCCN)C(=O)N[C@H](C(=O)NCC(N)=O)CSCC(=O)N[C@@H](Cc2ccc(F)cc2)C(=O)N(C)[C@@H](Cc2ccccc2)C(=O)N1C` [Example 9221] ({CH2CO}-[Phe(4-F)][NMeF][NMeNle][dP]DV[NMehSer](Me)Y[dP]WY[Orn]CG-NH2; thioether N-13), with 100 to 990 nM. Then `CCCC[C@H]1C(=O)N(C)[C@@H](CCCC)C(=O)N[C@@H](CCCN)C(=O)N[C@H](C(=O)NCC(N)=O)CSCC(=O)N[C@@H](Cc2ccc(OC)cc2)C(=O)N(C)[C@@H](C)C(=O)N[C@@H](CC(=O)O)C(=O)N2CCC[C@H]2C(=O)N[C@@H](Cc2cnc[nH]2)C(=O)N[C@@H](CCC(=O)O)C(=O)N2C[C@H](O)C[C@H]2C(=O)N[C@@H](Cc2c[nH]c3ccccc23)C(=O)N[C@@H](CC(=O)O)C(=O)N[C@@H](Cc2c[nH]c3ccccc23)C(=O)N1C` [Example 7099] ({CH2CO}-Y(Me)[NMeA]DPHE[Hyp]WDW[NMeNle][NMeNle][Orn]CG-NH2; thioether N-14), with 10 to 99.9 nM; and `CCCC[C@H]1C(=O)N(C)CC(=O)N[C@@H](CC(=O)O)C(=O)N[C@@H](C(C)C)C(=O)N[C@@H](Cc2c[nH]c3ccccc23)C(=O)N[C@@H](Cc2ccc(O)cc2)C(=O)N(C)CC(=O)N[C@@H](Cc2c[nH]c3ccccc23)C(=O)N[C@@H](Cc2ccc(O)cc2)C(=O)N[C@@H](CC(C)C)C(=O)N[C@H](C(=O)NCC(N)=O)CSCC(=O)N[C@@H](Cc2ccccc2)C(=O)N(C)[C@@H](Cc2ccccc2)C(=O)N1C` [Example 3232] ({CH2CO}-F[NMeF][NMeNle][Sar]DVWY[Sar]WYLCG-NH2; thioether N-13), with 1000 to 10000 nM.

Consider `CCCC[C@H]1C(=O)N[C@@H](CC(N)=O)C(=O)N2CCC[C@H]2C(=O)N[C@@H](CO)C(=O)N[C@@H](CCO)C(=O)N2C[C@H](O)C[C@H]2C(=O)N[C@@H](Cc2c[nH]c3ccccc23)C(=O)N[C@@H](CO)C(=O)N[C@@H](Cc2c[nH]c3ccccc23)C(=O)N(C)[C@@H](C)C(=O)N(C)[C@@H](C)C(=O)N[C@@H](CCCCN)C(=O)NC(C(=O)NCC(N)=O)CSCC(=O)N[C@@H](Cc2ccc(O)cc2)C(=O)N1C` (some centres unmarked) [Example 10211] ({CH2CO}-Y[NMeNle]NPS[hSer][Hyp]WSW[NMeA][NMeA]K[ξC]G-NH2; thioether N-14), for which the IC50 lay in the range of 1000 to 10000 nM. Then `CCCC[C@H]1C(=O)N(C)[C@@H](CCCC)C(=O)N[C@@H](CCC(=O)O)C(=O)N[C@H](C(=O)NCC(N)=O)CSCC(=O)N[C@@H](Cc2ccc(OC)cc2)C(=O)N(C)[C@@H](C)C(=O)N[C@@H](CC(=O)O)C(=O)N2CCC[C@H]2C(=O)N[C@@H](CN)C(=O)N[C@@H](CCC(=O)O)C(=O)N2C[C@H](O)C[C@H]2C(=O)N[C@@H](Cc2c[nH]c3ccccc23)C(=O)N[C@@H](CC(=O)O)C(=O)N[C@@H](Cc2c[nH]c3ccccc23)C(=O)N1C` [Example 7133] ({CH2CO}-Y(Me)[NMeA]DP[Dap]E[Hyp]WDW[NMeNle][NMeNle]ECG-NH2; thioether N-14), with 10 to 99.9 nM. Then `CCCC[C@H]1C(=O)N(C)[C@@H](CCCC)C(=O)N[C@@H](CCC(=O)O)C(=O)NC(C(=O)NCC(N)=O)CSCC(=O)N[C@@H](Cc2ccc(O)cc2)C(=O)N(C)[C@@H](C)C(=O)N[C@@H](CC(N)=O)C(=O)N2CCC[C@H]2C(=O)N[C@@H](Cc2c[nH]cn2)C(=O)N[C@@H](CC(N)=O)C(=O)N2C[C@H](O)C[C@H]2C(=O)N[C@@H](Cc2c[nH]c3ccccc23)C(=O)N[C@@H](CCO)C(=O)N[C@@H](Cc2c[nH]c3ccccc23)C(=O)N1C` (some centres unmarked) [Example 9187] ({CH2CO}-Y[NMeA]NPHN[Hyp]W[hSer]W[NMeNle][NMeNle]E[ξC]G-NH2; thioether N-14), with 1 to 9.9 nM.
